Measurements as given in ChEMBL document CHEMBL4513134, “CO-ADD screening of University of Queensland (Australia) compounds” (2021).

Legend:
Pseudomonas aeruginosa = test: microbe, parasite or virus in culture; details: ATCC 27853, 18 h, ASSAY_TEST Inhibition of Bacterial Growth, detection method Absorption (OD600), MEDIA CAMHB, plate type 384well, NBS, CORNING #3640
Description: Antibacterial activity against Pseudomonas aeruginosa ATCC 27853 (CO-ADD:GN_042); MIC in CAMBH media using NBS plates, by OD(600)

Acinetobacter baumannii = test: microbe, parasite or virus in culture; details: ATCC 19606, 18 h, ASSAY_TEST Inhibition of Bacterial Growth, detection method Absorption (OD600), MEDIA CAMHB, plate type 384well, NBS, CORNING #3640
Description: Antibacterial activity against Acinetobacter baumannii ATCC 19606 (CO-ADD:GN_034); MIC in CAMBH media using NBS plates, by OD600

Candida albicans = test: microbe, parasite or virus in culture; details: ATCC 90028, ASSAY_TEST Inhibition of Fungal Growth, detection method Absorption (OD530), plate type 384well, NBS, CORNING #3640
Description: Antifungal activity against Candida albicans ATCC 90028 (CO-ADD:FG_001); MIC in YNB media using NBS plates, by OD630

Escherichia coli = test: microbe, parasite or virus in culture; details: ATCC 25922, 18 h, ASSAY_TEST Inhibition of Bacterial Growth, detection method Absorption (OD600), MEDIA CAMHB, plate type 384well, NBS, CORNING #3640
Description: Antibacterial activity against Escherichia coli ATCC 25922 (CO-ADD:GN_001); MIC in CAMBH media using NBS plates, by OD(600)

Staphylococcus aureus = test: microbe, parasite or virus in culture; details: ATCC 43300, 18 h, ASSAY_TEST Inhibition of Bacterial Growth, detection method Absorption (OD600), MEDIA CAMHB, plate type 384well, NBS, CORNING #3640
Description: Antibacterial activity against Staphylococcus aureus MRSA ATCC 43300 (CO-ADD:GP_020); MIC in CAMBH media, using NBS plates, by OD(600)

Klebsiella pneumoniae = test: microbe, parasite or virus in culture; details: ATCC 700603, 18 h, ASSAY_TEST Inhibition of Bacterial Growth, detection method Absorption (OD600), MEDIA CAMHB, plate type 384well, NBS, CORNING #3640
Description: Antibacterial activity against Klebsiella pneumoniae MDR ATCC 70063 (CO-ADD:GN_003); MIC in CAMBH media using NBS plates, by OD(600)

HEK293 = test: cells; assay type: functional, Homo sapiens, ATCC CRL1573; details: Homo sapiens, ATCC CRL1573, HEK293; ASSAY_TEST Inhibition of Cell Viability; detection method Resazurin; Fluorescence (ex560/em590); MEDIA DMEM with 10% FBS; plate type 384well; TC; CORNING #3712; time 18 hr; read-out: CC50

Description for Cryptococcus neoformans: Antifungal activity against Cryptococcus neoformans H99 ATCC 208821 (CO-ADD:FG_002); MIC in YNB media using NBS plates, by Resazurin OD(600-570)

Cn1c([N+](=O)[O-])cnc1C(=O)NC1CCCCC1
> 32 µg/mL: MIC (Cryptococcus neoformans) | MIC (Pseudomonas aeruginosa) | MIC (Acinetobacter baumannii) | MIC (Candida albicans) | MIC (Escherichia coli) | MIC (Staphylococcus aureus) | MIC (Klebsiella pneumoniae) | CC50 (HEK293)

Cn1c([N+](=O)[O-])cnc1C(=O)OC1CCCCC1
> 32 µg/mL: MIC (Cryptococcus neoformans) | MIC (Pseudomonas aeruginosa) | MIC (Acinetobacter baumannii) | MIC (Candida albicans) | MIC (Escherichia coli) | MIC (Staphylococcus aureus) | MIC (Klebsiella pneumoniae) | CC50 (HEK293)

CN(Cc1ccccc1)C(=O)c1ncc([N+](=O)[O-])n1C
> 32 µg/mL: MIC (Cryptococcus neoformans) | MIC (Pseudomonas aeruginosa) | MIC (Acinetobacter baumannii) | MIC (Candida albicans) | MIC (Escherichia coli) | MIC (Staphylococcus aureus) | MIC (Klebsiella pneumoniae) | CC50 (HEK293)
